Assay results: patent publication US8835476B2, “Synthesis of novel antimicrobials” (priority 2005, dated 2014)
In brackets after ≈: the same amount, converted by molar mass. Read-outs that look alike come from different tables or passages of the source.

Tests used:
Experiment in all cases: Broth microdilution MIC, ATCC strains
Type in all cases: cell-based
A. anitratus ATCC 19606 = conditions: Acinetobacter calcoaceticus, ATCC19606; A. anitratus ATCC 19606; read-out: MIC (growth inhibition, microdilution method)
Excerpt: (§1) All clinical isolates tested were from The North American Urinary Tract Infection Collaborative Alliance (NAUTICA) which is a UTI surveillance study involving 40 medical centres (30 from the US and 10 from Canada). Each centre submitted up to 50 consecutive outpatient midstream urine isolates. All isolates were deemed significant urinary tract pathogens by individual laboratory criteria and identified to the species level by each laboratory's existing protocol. Isolates were transported to the coordinating laboratory (Health Sciences Centre, Winnipeg, Canada) on charcoal swabs. Only one isolate per patient was accepted. Upon receipt, isolates were cultured by the coordinating laboratory, stocked in skim milk, and stored at −80° C. awaiting reference antibiotic susceptibility testing. Elementary demographic information was also compiled for each isolate. Isolates were selected randomly from the above pool to represent 18 different species of Enterobacteriaceae and non-Enterobacteriaceae. An average of 5 strains of each species were tested for a total of 93 organisms. In addition, 23 reference (ATCC) [both gram negative and gram positive] strains were tested.
(§2) Susceptibilities to the compounds were determined using the National Committee for Clinical Laboratory Standards (NCCLS) M7-A6 broth microdilution method. […] DMSO controls were incorporated into the panel to mimic the quantity of DMSO used in dissolving some of the compounds at the higher concentrations. Each final panel well volume was 100 μl with a bacterial inoculum of 5×10^5 colony forming units (CFU)/ml. Panels were read following 16 to 20 hours of incubation at 35° C. in ambient air. The minimum inhibitory concentration (MIC) was defined as the lowest concentration of antimicrobial inhibiting visible growth. Quality control (QC) was performed using four ATCC QC organisms that were run with every batch set up to insure reproducibility.

B. cepacia ATCC 25416 = conditions: Burkholderia cepacia, ATCC25416; B. cepacia ATCC 25416; read-out: MIC (growth inhibition, microdilution method)
Excerpt: as §1, §2

E. aerogenes ATCC 13048 = conditions: Klebsiella aerogenes
Excerpt: as §1, §2

E. cloacae ATCC 23355 = conditions: Enterobacter cloacae
Excerpt: as §1, §2

E. coli ATCC 25922 = conditions: Escherichia coli
Excerpt: as §1, §2

E. faecalis ATCC 29212 = conditions: for MIC: Enterococcus faecalis, read-out: MIC (growth inhibition, microdilution method)
Excerpt: as §1, §2

E. faecium ATCC 35667 = conditions: Enterococcus faecium, ATCC35667, read-out: MIC (growth inhibition, microdilution method)
Excerpt: as §1, §2

K. oxytoca ATCC 49131 = conditions: Klebsiella oxytoca
Excerpt: as §1, §2

K. pneumoniae ATCC 13883 = conditions: Klebsiella pneumoniae
Excerpt: as §1, §2

MRSA ATCC 33591 = conditions: Staphylococcus aureus; MRSA ATCC 33591; read-out: MIC (growth inhibition, microdilution method)
Excerpt: as §1, §2

P. mirabilis ATCC 29245 = conditions: Proteus mirabilis
Excerpt: as §1, §2

P. vulgaris ATCC 49132 = conditions: Proteus vulgaris
Excerpt: as §1, §2

Pr. stuartii ATCC 33672 = conditions: Providencia stuartii
Excerpt: as §1, §2

[1] = system: Ps. aeruginosa ATCC 27853; conditions: Pseudomonas aeruginosa
Excerpt: as §1, §2

S. aureus ATCC 29213 = conditions: for MIC: Staphylococcus aureus
Excerpt: as §1, §2

[2] = system: S. epidermidis ATCC 14990; conditions: Staphylococcus epidermidis, ATCC14990; S. epidermidis ATCC 14990; read-out: MIC (growth inhibition, microdilution method)
Excerpt: as §1, §2

[3] = system: S. liquefaciens ATCC 27592; conditions: read-out: MIC (growth inhibition, microdilution method)
Excerpt: as §1, §2

[4] = system: S. maltophilia ATCC 13637; conditions: Stenotrophomonas maltophilia, ATCC13637; S. maltophilia ATCC 13637; read-out: MIC (growth inhibition, microdilution method)
Excerpt: as §1, §2

S. marcescens ATCC 8100 = conditions: Serratia marcescens
Excerpt: as §1, §2

[5] = system: S. saprophyticus ATCC 15305; conditions: Staphylococcus saprophyticus
Excerpt: as §1, §2

S. simulans ATCC 27848 = conditions: Staphylococcus simulans, ATCC27848, read-out: MIC (growth inhibition, microdilution method)
Excerpt: as §1, §2

S. warneri ATCC 27836 = conditions: Staphylococcus warneri
Excerpt: as §1, §2

[6] = ATCC29212, E. faecalis ATCC 29212
[7] = ATCC29212, E. faecalis, ATCC number not given
[8] = ATCC27853, Ps. aeruginosa ATCC 27853, read-out: MIC (growth inhibition, microdilution method)
[9] = ATCC13048, E. aerogenes ATCC 13048, read-out: MIC (growth inhibition, microdilution method)
[10] = ATCC23355, E. cloacae ATCC 23355, read-out: MIC (growth inhibition, microdilution method)
[11] = ATCC25922, E. coli ATCC 25922, read-out: MIC (growth inhibition, microdilution method)
[12] = ATCC49131, K. oxytoca ATCC 49131, read-out: MIC (growth inhibition, microdilution method)
[13] = ATCC13883, K. pneumoniae ATCC 13883, read-out: MIC (growth inhibition, microdilution method)
[14] = ATCC29245, P. mirabilis ATCC 29245, read-out: MIC (growth inhibition, microdilution method)
[15] = ATCC49132, P. vulgaris ATCC 49132, read-out: MIC (growth inhibition, microdilution method)
[16] = ATCC33672, Pr. stuartii ATCC 33672, read-out: MIC (growth inhibition, microdilution method)
[17] = ATCC29213, S. aureus ATCC 29213, read-out: MIC (growth inhibition, microdilution method)
[18] = ATCC8100, S. marcescens ATCC 8100, read-out: MIC (growth inhibition, microdilution method)
[19] = ATCC15305, S. saprophyticus ATCC 15305, read-out: MIC (growth inhibition, microdilution method)
[20] = ATCC27836, S. warneri ATCC 27836, read-out: MIC (growth inhibition, microdilution method)

| SMILES | MIC (A. anitratus ATCC 19606) [µg/mL] | MIC (B. cepacia ATCC 25416) [µg/mL] | MIC (E. faecalis ATCC 29212; [6]) [µg/mL] | MIC (E. faecalis ATCC 29212; [7]) [µg/mL] | MIC (E. faecium ATCC 35667) [µg/mL] | MIC (MRSA ATCC 33591) [µg/mL] | MIC [1, 8] [µg/mL] | MIC [2] [µg/mL] | MIC [4] [µg/mL] | MIC (S. simulans ATCC 27848) [µg/mL] | MIC (E. aerogenes ATCC 13048; [9]) [µg/mL] | MIC (E. cloacae ATCC 23355; [10]) [µg/mL] | MIC (E. coli ATCC 25922; [11]) [µg/mL] | MIC (K. oxytoca ATCC 49131; [12]) [µg/mL] | MIC (K. pneumoniae ATCC 13883; [13]) [µg/mL] | MIC (P. mirabilis ATCC 29245; [14]) [µg/mL] | MIC (P. vulgaris ATCC 49132; [15]) [µg/mL] | MIC (Pr. stuartii ATCC 33672; [16]) [µg/mL] | MIC (S. aureus ATCC 29213; [17]) [µg/mL] | MIC ([3]; S. liquefaciens ATCC 27592) [µg/mL] | further results |
| --- | --- | --- | --- | --- | --- | --- | --- | --- | --- | --- | --- | --- | --- | --- | --- | --- | --- | --- | --- | --- | --- |
| COC(=O)c1cc(-c2nnn(C)n2)c(C(=O)OC)s1 [DNM-114, 3-(2-methyl-2H-tetrazol-5-yl)-thiophene-2,5-dicarboxylic acid dimethyl ester] | 64 (≈ 227 µM) | 64 (≈ 227 µM) | 8 (≈ 28.3 µM) | 8 (≈ 28.3 µM) | 8 (≈ 28.3 µM) | 256 (≈ 907 µM) | 64 (≈ 227 µM) | 64 (≈ 227 µM) | 64 (≈ 227 µM) | 256 (≈ 907 µM) |  |  |  |  |  |  |  |  |  |  | MIC (E. aerogenes ATCC 13048; ATCC13048, read-out: MIC (growth inhibition, microdilution method)): 128 µg/mL (≈ 453 µM); MIC (E. cloacae ATCC 23355; ATCC23355, read-out: MIC (growth inhibition, microdilution method)): 128 µg/mL (≈ 453 µM); MIC (E. coli ATCC 25922; ATCC25922, read-out: MIC (growth inhibition, microdilution method)): 128 µg/mL (≈ 453 µM); MIC (K. oxytoca ATCC 49131; ATCC49131, read-out: MIC (growth inhibition, microdilution method)): 128 µg/mL (≈ 453 µM); MIC (K. pneumoniae ATCC 13883; ATCC13883, read-out: MIC (growth inhibition, microdilution method)): 128 µg/mL (≈ 453 µM); MIC (P. mirabilis ATCC 29245; ATCC29245, read-out: MIC (growth inhibition, microdilution method)): 128 µg/mL (≈ 453 µM); MIC (P. vulgaris ATCC 49132; ATCC49132, read-out: MIC (growth inhibition, microdilution method)): 128 µg/mL (≈ 453 µM); MIC (Pr. stuartii ATCC 33672; ATCC33672, read-out: MIC (growth inhibition, microdilution method)): 128 µg/mL (≈ 453 µM); MIC ([1]; ATCC27853, read-out: MIC (growth inhibition, microdilution method), Ps. aeruginosa ATCC 27853): 128 µg/mL (≈ 453 µM); MIC (S. aureus ATCC 29213; ATCC29213, read-out: MIC (growth inhibition, microdilution method)): 128 µg/mL (≈ 453 µM); MIC [3]: 128 µg/mL (≈ 453 µM); MIC (S. marcescens ATCC 8100; ATCC8100, read-out: MIC (growth inhibition, microdilution method)): 128 µg/mL (≈ 453 µM); MIC ([5]; ATCC15305, read-out: MIC (growth inhibition, microdilution method)): 128 µg/mL (≈ 453 µM); MIC (S. warneri ATCC 27836; ATCC27836, read-out: MIC (growth inhibition, microdilution method)): 128 µg/mL (≈ 453 µM) |
| COC(=O)c1sc(-c2ccc(F)cc2)cc1-c1nnn(C)n1 [DNM-144, 5-(4-fluoro-phenyl)-3-(2-methyl-2H-tetrazol-5-yl)-thiophene-2-carboxylic acid methyl ester] | > 8 | > 8 | > 8 | > 8 | > 8 | > 8 | > 8 | > 8 | > 8 | > 8 | > 8 | > 8 | > 8 | > 8 | > 8 | > 8 | > 8 | > 8 | > 8 | > 8 | MIC (S. marcescens ATCC 8100; [18]): > 8 µg/mL; MIC [5, 19]: > 8 µg/mL; MIC (S. warneri ATCC 27836; [20]): > 8 µg/mL |
| O=C(O)c1sc(-c2ccc(F)cc2)cc1-c1nnn[nH]1 [DNM-141, 5-(4-Fluoro-phenyl)-3-(1H-tetrazol-5-yl)-thiophene-2-carboxylic acid] | > 16 | > 16 | > 16 | > 16 | > 16 | > 16 | > 16 | > 16 | > 16 | > 16 | > 16 | > 16 | > 16 | > 16 | > 16 | > 16 | > 16 | > 16 | > 16 | > 16 | MIC (S. marcescens ATCC 8100; [18]): > 16 µg/mL; MIC [5, 19]: > 16 µg/mL; MIC (S. warneri ATCC 27836; [20]): > 16 µg/mL |
| Fc1ccc(-c2cc(-c3nnn[nH]3)c(-c3ccc(F)cc3)s2)cc1 [DNM-131, 5-(2,5-Bis(4-fluorophenyl)thiophen-3-yl)-1H-tetrazole] | > 32 | > 32 | > 32 | 32 (≈ 94 µM) | > 32 | > 32 | > 32 | > 32 | > 32 | > 32 | > 32 | > 32 | > 32 | > 32 | > 32 | > 32 | > 32 | > 32 | 32 (≈ 94 µM) | > 32 | MIC (growth inhibition, microdilution method) (E. faecalis ATCC 29212; E. faecalis, ATCC number not given): >32 µg/mL; MIC (growth inhibition, microdilution method) (S. aureus ATCC 29213; S. aureus ATCC 29213): >32 µg/mL; MIC (S. marcescens ATCC 8100; [18]): > 32 µg/mL; MIC [5, 19]: > 32 µg/mL; MIC (S. warneri ATCC 27836; [20]): > 32 µg/mL |
